Common to all, as to type: functional
One test deals with P388. Kind of test: Growth inhibition of mouse P388 cells. The following applies: read-out: ED50 (the source's name).
Another test deals with K562. As to the kind of experiment: Growth inhibition of human K562 cells.
A further test has as its system RPMI-8226. As to the kind of experiment: Growth inhibition of human RPMI8226 cells.
A further test relates to NCI-H522. As to the kind of experiment: Growth inhibition of human NCI-H522 cells.
Another test has as its system NCI-H322M. Kind of test: Growth inhibition of human NCI-H322M cells.
In a further test the test system is SF-295. As to the kind of experiment: Growth inhibition of human SF295 cells.
A further test concerns M14. Kind of test: Growth inhibition of human M14 cells.
The next test deals with UACC-62. Kind of test: Growth inhibition of human UACC62 cells.
For the next test, the system named is UO-31. As to the kind of experiment: Growth inhibition of human UO31 cells.
The next test deals with A498. Kind of test: Growth inhibition of human A498 cells.
Another test concerns DMS-273. As to the kind of experiment: Growth inhibition of human DMS273 cells.
Another test has as its system DLD-1. Kind of test: Growth inhibition of human DLD1 cells.
A further test concerns OVCAR-3. As to the kind of experiment: Growth inhibition of human OVCAR-3 cells.
The next test concerns OVCAR-8. Kind of test: Growth inhibition of human OVCAR8 cells. The following applies: OVCAR-8, read-out: pGI50 (converted).
A further test relates to KM12. As to the kind of experiment: Growth inhibition of human KM12 cells.
Another test concerns SR. As to the kind of experiment: Growth inhibition of human SR cells.
The next test concerns IGROV-1. Kind of test: Growth inhibition of human IGROV1 cells.
In a further test the test system is SF-268. Kind of test: Growth inhibition of human SF268 cells.
For the next test, the system named is SNB-78. Kind of test: Growth inhibition of human SNB78 cells.
The next test deals with NCI-H23. As to the kind of experiment: Growth inhibition of human NCI-H23 cells.
In another test the test system is EKVX. As to the kind of experiment: Growth inhibition of human EKVX cells.
A further test deals with Malme-3M. Kind of test: Growth inhibition of human MALME-3M cells.
The subject of the next test is SK-MEL-28. Kind of test: Growth inhibition of human SK-MEL-28 cells.
The subject of another test is HOP-18. Kind of test: Growth inhibition of human HOP18 cells.
The test system of another test is CAKI-1. Kind of test: Growth inhibition of human Caki1 cells.
The subject of the next test is SNB-19. Kind of test: Growth inhibition of human SNB19 cells.
The test system of a further test is HOP-62. Kind of test: Growth inhibition of human HOP62 cells.
The next test relates to HCT-116. As to the kind of experiment: Growth inhibition of human HCT116 cells.
For the next test, the system named is TK-10. As to the kind of experiment: Growth inhibition of human TK10 cells.
For a further test, the system named is LOX IMVI. As to the kind of experiment: Growth inhibition of human LOXIMVI cells.
In the next test the test system is OVCAR-5. As to the kind of experiment: Growth inhibition of human OVCAR5 cells.
A further test has as its system UACC-257. Kind of test: Growth inhibition of human UACC257 cells.
A further test has as its system SK-MEL-2. As to the kind of experiment: Growth inhibition of human SK-MEL-2 cells.
Another test has as its system A549. As to the kind of experiment: Growth inhibition of human A549 cells.
The next test relates to SK-MEL-5. As to the kind of experiment: Growth inhibition of human SK-MEL-5 cells.
The nature of test [1]: Growth inhibition of human LXFL529 cells. The following applies: LXFL 529.
A further test relates to M19-MEL. As to the kind of experiment: Growth inhibition of human M19-MEL cells.
The subject of the next test is NCI-H460. As to the kind of experiment: Growth inhibition of human NCI-H460 cells.
The test system of the next test is ACHN. Kind of test: Growth inhibition of human ACHN cells.
The nature of test [2]: Growth inhibition of human 786-O cells. The note with it: 786-0.
A further test has as its system NCI-H226. As to the kind of experiment: Growth inhibition of human NCI-H226 cells.
Another test deals with OVCAR-4. As to the kind of experiment: Growth inhibition of human OVCAR4 cells.
Another test has as its system MOLT-4. Kind of test: Growth inhibition of human MOLT4 cells.
The subject of another test is COLO 205. As to the kind of experiment: Growth inhibition of human COLO205 cells.
For the next test, the system named is SF-539. As to the kind of experiment: Growth inhibition of human SF539 cells.
The next test deals with RXF 393. As to the kind of experiment: Growth inhibition of human RXF393 cells.
In a further test the test system is HT-29. Kind of test: Growth inhibition of human HT-29 cells.
Another test deals with HCT-15. Kind of test: Growth inhibition of human HCT15 cells.
Another test has as its system HCC 2998. Kind of test: Growth inhibition of human HCC2998 cells.
In the next test the test system is U-251. Kind of test: Growth inhibition of human U251 cells.
In the next test the test system is HOP-92. Kind of test: Growth inhibition of human HOP92 cells.
In a further test the test system is XF498. As to the kind of experiment: Growth inhibition of human XF498 cells.
Another test has as its system DMS-114. Kind of test: Growth inhibition of human DMS114 cells.
A further test relates to SN12C. As to the kind of experiment: Growth inhibition of human SN12C cells.
In a further test the test system is SK-OV-3. As to the kind of experiment: Growth inhibition of human SKOV3 cells.
A further test relates to SNB-75. Kind of test: Growth inhibition of human SNB75 cells.
The next test concerns HL-60(TB). Kind of test: Growth inhibition of human HL-60(TB) cells.
For the next test, the system named is SW-620. Kind of test: Growth inhibition of human SW620 cells.
The subject of a further test is KM-20L2. Kind of test: Growth inhibition of human KM20L2 cells.
The next test has as its system CCRF-CEM. Kind of test: Growth inhibition of human CCRF-CEM cells.

Converted amounts (≈) assume the structure as drawn.

`CO[C@H]1c2nc3c(nc2C[C@@H]2CC[C@H]4C5=C[C@@H]6O[C@]7(O[C@](C)(CO)C[C@H]7O)[C@@H](C)[C@]6(O)[C@@]5(C)[C@H](O)C[C@@H]4[C@]21C)C[C@@]1(C)[C@@H](CC[C@H]2C4=CC[C@@H]5[C@H](C)[C@@]6(OC[C@]45C(=O)C[C@@]21O)OC(C)(C)C[C@H]6O)C3` [CEPHALOSTATIN 10]: the EC50 in the test with P388 was 3 ng/mL (≈ 3.13 nM).
For `CO[C@H]1c2nc3c(nc2C[C@@H]2CC[C@H]4C5=CC[C@@H]6[C@@H](C)[C@]7(OC[C@]56C(=O)C[C@]4(O)[C@]21C)OC(C)(C)C[C@H]7O)C[C@@]1(C)[C@@H](CC[C@H]2C4=C[C@@H]5O[C@]6(O[C@](C)(CO)C[C@H]6O)[C@@H](C)[C@]5(O)[C@@]4(C)[C@H](O)C[C@@H]21)C3`, the EC50 in the test on P388 turned out to be 2.5 ng/mL (≈ 2.61 nM).
Regarding `C[C@@H]1[C@]2(O[C@H]3C=C4[C@@H]5CC[C@H]6Cc7nc8c(nc7C[C@]6(C)[C@H]5C[C@@H](O)[C@]4(C)[C@]31O)C[C@@H]1CC[C@H]3C4=CC[C@@H]5[C@H](C)[C@@]6(OC[C@]45C(=O)C[C@@H]3[C@@]1(C)C8)OC(C)(C)C[C@H]6O)O[C@](C)(CO)C[C@H]2O` [CEPHALOSTATIN 1], the GI50 was 0.427 nM in the test with K562; 0.0513 nM with RPMI-8226; 2.4 nM with NCI-H522; 33.1 nM with NCI-H322M; 0.0437 nM in the test on SF-295; 0.49 nM in the test on M14. In addition, the GI50 in the test with UACC-62 was 0.389 nM; in the test with UO-31, 4.17 nM; in the test with A498, 0.537 nM; in the test with DMS-273 it was 0.0525 nM; in the test with DLD-1, 8.51 nM; in the test with OVCAR-3, 30.9 nM. For the same compound, the GI50 in the test on OVCAR-8 was 24 nM; with KM12, 3.24 nM; in the test on SR, 0.288 nM; with IGROV-1, 2.19 nM; in the test with SF-268 it was 2.19 nM; in the test with SNB-78 it was 0.794 nM. For the same compound, the GI50 in the test on NCI-H23 was 0.339 nM; in the test with EKVX, 43.6 nM; in the test on Malme-3M, 5.25 nM; in the test with SK-MEL-28 it was 0.955 nM; in the test on HOP-18, 0.832 nM; with CAKI-1, 0.724 nM. The GI50 in the test with SNB-19 is 1.7 nM; with HOP-62, 0.209 nM; with HCT-116 it was 0.525 nM; in the test on TK-10 it was 93.3 nM; with LOX IMVI it was 0.24 nM; with OVCAR-5, 10 nM. The GI50 in the test on UACC-257 is 3.71 nM; in the test on SK-MEL-2, 0.741 nM; in the test with A549, 1.1 nM; in the test with SK-MEL-5 it was 3.47 nM; in test [1] it was 0.363 nM; in the test with M19-MEL, 47.9 nM. For the same compound, the GI50 with NCI-H460 is 0.309 nM; in the test on ACHN, 3.31 nM; in [2] it was 0.0776 nM; in the test with NCI-H226 it was 3.24 nM; in the test with OVCAR-4, 14.1 nM; with MOLT-4, 0.2 nM. For the same compound, the GI50 is 1.7 nM in the test on COLO 205; 0.0813 nM in the test on SF-539; 0.0251 nM with RXF 393; 2 nM in the test on HT-29; 3.39 nM in the test on HCT-15; 60.3 nM in the test with HCC 2998. Also, the GI50 in the test on U-251 was 0.0646 nM; in the test with HOP-92, 0.724 nM; in the test with XF498, 0.589 nM; with DMS-114 it was 0.661 nM; in the test on SN12C it was 21.9 nM; in the test with SK-OV-3 it was 7.08 nM. Besides, the GI50 was 0.0813 nM with SNB-75; 0.151 nM with HL-60(TB); 0.302 nM with SW-620; 2 nM in the test on KM-20L2; 0.251 nM with CCRF-CEM.

The record behind these values is ChEMBL document CHEMBL1149028, “Isolation and structure of cephalostatins 10 and 11” (1994).
